# Measurements as given in patent publication US20100160391A1, “Substituted Aminopyridines as Fluorescent Reporters for Amide Hydrolases” (priority 2006, published 2010).
# Like-named read-outs stand apart in the source and are kept apart here. Marks after values point to notes of the source that are not given here.
# Assays:
# FAAH [1] = assay: FAAH kinetic data of literature substrates; format: biochemical; conditions: Vmax/Km of substrate over that of oleamide (5.5 × 10^−2)
# FAAH [2] = conditions: from Ramarao et al. (AAMCA), De Bank et al. (oleamide); cited from earlier work
# [3] = cited from earlier work; for ØF, fluorescence quantum yield: in water, literature value
# [4] = 3-aminopyridine in water, from Weisstuch et al.; cited from earlier work
# [5] = Maximal excitation and emission wavelengths; format: physicochemical; conditions: 50 μM in 0.1 M phosphate buffer, 30° C.; SD ±2 nm
# Description: Maximal excitation and emission wavelengths. A stock solution in ethanol of each compound (10 μl, 5 mM) was added to 990 μl of sodium phosphate buffer (0.1 M, pH 8.0, final substrate concentration 50 μM) in a 1-cm quartz cuvette. The quartz cuvette was scanned from 200 to 500 nm for absorption spectra with a Spectra Max M2 spectrophotometer. Maximal excitation and emission wavelengths were obtained from scanning from 250 to 600 nm and 360 to 600 nm by a 2 nm interval at 30° C., respectively.
# [6] = Molar extinction coefficient of fluorescent reporters; format: physicochemical; conditions: H2O containing 1% ethanol, 290 nm, 30° C., 10-50 μM
# Description: Molar extinction coefficient. According to Beer's law, Aλ=ε*C*L, where Aλ is the absorbance at wavelength (λ nm); ε is called the molar extinction coefficient; L is the width of the sample cuvette; and C is the concentration of the solute. In this example, a series of concentrations falling between 10 and 50 μM (final concentration) for each fluorescent reporter was used for determination of the molar extinction coefficient. Assays were performed in a quartz cuvette (1 cm optical passage). 10 μl of a stock solution of a reporter in ethanol (1, 2, 3, 4, or 5 mM) was added to 990 μl H2O. The resulting mixture was degassed by sonication with ultrasonic cleaner Model 750 (VWR International; Wester, Pa.) for 10 seconds at a power level of 9. Measurements were performed with a Spectra Max M2 spectrophotometer (Molecular Devices; Sunnyvale, Calif.) at a wavelength of 290 nm. A slope (or extinction coefficient) was obtained by using an average absorbance of triplicate samples.
# amidases, human liver S9 = assay: Specific activity, human liver S9; format: biochemical; conditions: pH 8.0, 37° C.; NM = not measurable at the same protein concentration as other substrates
# Description: Comparison of the lowest detection limits of protein concentration of FAAH toward colorimetric and fluorescent substrates. In general, all assays were performed in 96-well styrene flat-bottom microtiter plates with a Spectra Max M2 spectrophotometer at 37° C. for […]. The total volume of each well was 201 μl consisting of 0.1 M sodium phosphate buffer (pH 8.0) (190 μl) containing 1% glycerol and 0.1% Triton-X 100, stock or diluted protein solution (10 μl), and the substrate solution (1 μl) in ethanol (final concentration 200 μM for 10, 11, 13 or 14) or in DMSO (final concentration 25 μM for 12, 15, or 16; 50 μM for 17). The lowest detection limits of microsomal fatty acid amide hydrolase (FAAH) by substrates were determined by the fact that the signal at 10 min after kinetic measurements are equal to or over three times the noise or basal line at 0 min. Colorimetric substrate (16) assays were performed in clear 96-well microtititer plates using an absorbance wavelength at 382 nm. The fluorescent substrates containing 5-amino-2-methoxypyridine (e.g., 10, 13) were measured at an excitation wavelength (302 nm), emission wavelength (396 nm), and auto cutoff wavelength (325 nm). […]
# [7] = tested on: amidases, human liver microsomes; assay: Specific activity, human liver microsomes; format: biochemical; conditions: for Specific activity, Human liver microsomes: pH 8.0, 37° C., NM = not measurable at the same protein concentration as other substrates
# Description: (§1) Comparison of the lowest detection limits of protein concentration of FAAH toward colorimetric and fluorescent substrates. In general, all assays were performed in 96-well styrene flat-bottom microtiter plates with a Spectra Max M2 spectrophotometer at 37° C. for […]. The total volume of each well was 201 μl consisting of 0.1 M sodium phosphate buffer (pH 8.0) (190 μl) containing 1% glycerol and 0.1% Triton-X 100, stock or diluted protein solution (10 μl), and the substrate solution (1 μl) in ethanol (final concentration 200 μM for 10, 11, 13 or 14) or in DMSO (final concentration 25 μM for 12, 15, or 16; 50 μM for 17). The lowest detection limits of microsomal fatty acid amide hydrolase (FAAH) by substrates were determined by the fact that the signal at 10 min after kinetic measurements are equal to or over three times the noise or basal line at 0 min. Colorimetric substrate (16) assays were performed in clear 96-well microtititer plates using an absorbance wavelength at 382 nm. The fluorescent substrates containing 5-amino-2-methoxypyridine (e.g., 10, 13) were measured at an excitation wavelength (302 nm), emission wavelength (396 nm), and auto cutoff wavelength (325 nm). Similarly, the fluorescent substrates containing 5-amino-2-methoxy-6-methylpyridine (e.g., 11, 14, and 17) were measured at an excitation wavelength (304 nm), emission wavelength (392 nm), and an auto cutoff wavelength of 325 nm. In addition, an excitation wavelength (366 nm), emission wavelength (496 nm), and auto cutoff wavelength (495 nm) were used for the substrates (e.g., 12 and 15) containing 7-amino-4-trifluoromethyl coumarin.
# Specific activity determination. The assays for specific activities were performed as described above for the sensitivity assay. The specific activity presented is based on the following: 1) the signal after a 10 min enzymatic reaction was at least 3 fold the baseline signal at 0 min, and 2) the amount of hydrolyzed substrate during a 10 min period was less than 10% of the total amount of the substrate added. To correct for protein-induced fluorescence quenching, a standard curve of 5-amino-2-methoxypyridine (6) or 5-amino-2-methoxy-6-methylpyridine (8) was constructed in the presence of the same protein concentration used for the assay of that enzyme.
# [8] = biological target: T1, microsomal fatty acid amide hydrolase (FAAH) (Homo sapiens, UniProt O00519); assay: Lowest detection limits of microsomal FAAH toward colorimetric and fluorescent substrates; format: biochemical
# T1 construct: made in house; host or cells: Trichoplusia ni High Five cells infected with recombinant baculovirus Ac-hFAAH; microsomal fraction
# T1 sequence (O00519 1-579): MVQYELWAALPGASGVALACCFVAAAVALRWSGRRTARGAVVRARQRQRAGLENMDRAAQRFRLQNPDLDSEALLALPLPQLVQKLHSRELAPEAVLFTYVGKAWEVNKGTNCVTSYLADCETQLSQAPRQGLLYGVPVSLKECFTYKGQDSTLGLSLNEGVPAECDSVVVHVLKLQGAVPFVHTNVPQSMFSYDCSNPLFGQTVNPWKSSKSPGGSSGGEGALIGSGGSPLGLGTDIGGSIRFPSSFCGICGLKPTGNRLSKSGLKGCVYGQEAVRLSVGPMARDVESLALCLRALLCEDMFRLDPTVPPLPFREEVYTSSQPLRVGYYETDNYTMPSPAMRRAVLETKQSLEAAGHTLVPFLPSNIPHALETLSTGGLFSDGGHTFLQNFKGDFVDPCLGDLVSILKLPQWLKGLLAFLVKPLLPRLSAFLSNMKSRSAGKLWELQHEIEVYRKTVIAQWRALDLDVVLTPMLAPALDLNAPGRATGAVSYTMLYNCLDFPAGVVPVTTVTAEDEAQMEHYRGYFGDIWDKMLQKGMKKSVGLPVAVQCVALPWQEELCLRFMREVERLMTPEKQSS
# Description: (§2) Preparation of recombinant human FAAH. Transgenic expression of the human FAAH in a baculovirus system was performed by following the method described in Nishi et al., Arch. Biochem. Biophys., 445:115-123 (2006). The cDNA encoding human FAAH (GenBank Accession No. NM_001441) was amplified by PCR using a human liver cDNA library (Invitrogen; Carlsbad, Calif.) as a template. The primer pair was 5′-[…]-3′ and 5′-[…]-3′. BglII and EcoRI endonuclease sites (underlined) were incorporated just upstream of the start codon and downstream of the stop codon of the coding sequence of FAAH, respectively. The PCR products were cloned into a pCR2.1 vector (Invitrogen) and the nucleotide sequence was verified by DNA sequencing. The cDNA fragments were then excised and directionally ligated to the BglII and EcoRI sites of the baculovirus transfer vector pAcUW21 (Lopez-Ferber et al., Baculovirus transfer vectors, in “Baculovirus Expression Protocols,” Richardson (Ed.), pp 25-63, Humana Press, Totowa, N.J., 1995). Recombinant baculoviruses harboring the human FAAH gene, Ac-hFAAH, were generated by co-transfection of Spodoptera frugiperda-derived Sf21 cells with the recombinant transfer vector plasmid and Bsu36I-cleaved BacPAK6 viral DNA (Clontech Laboratories; Mountain View, Calif.) as described in O'Reilly et al., Baculovirus Expression Vectors: A Laboratory Manual, Oxford University Press, New York, 1992. Trichoplusia ni-derived High Five cells (1×10^6 cells/ml) were inoculated with a high titer of Ac-hFAAH. At 72 hours post-infection, the infected cells were harvested by centrifugation at 2,000×g for 20 min at 4° C. and suspended in 50 mM Tris-HCl (pH 8.0) containing 150 mM NaCl, 1 mM EDTA, 1 μM pepstatin, 100 μM leupeptin, and 0.1 mg/ml aprotinin. The cell suspension was then homogenized using a Polytron homogenizer and centrifuged at 10,000×g for 20 min at 4° C. The microsomal fraction was collected by ultracentrifugation of the supernatant at 100,000×g for 60 min at 4° C. The pellet was resuspended in 20 mM Tris-HCl (pH 8.0) containing 10% (w/v) glycerol and 1% (w/v) Triton-X 100 and stored at −80° C. until use.
# as §1
# [9] = tested on: amidases, microsomes from High Five cells; assay: Specific activity, microsomes from High Five cells; conditions: pH 8.0, 37° C.; NM = not measurable at the same protein concentration as other substrates
# Description: Preparation of recombinant human FAAH. Transgenic expression of the human FAAH in a baculovirus system was performed by following the method described in Nishi et al., Arch. […] The cDNA encoding human FAAH (GenBank Accession No. NM—001441) was amplified by PCR using a human liver cDNA library (Invitrogen; Carlsbad, Calif.) as a template. The primer pair was 5′-[sequence]-3′ and 5′-[sequence]-3′. BglII and EcoRI endonuclease sites (underlined) were incorporated just upstream of the start codon and downstream of the stop codon of the coding sequence of FAAH, respectively. The PCR products were cloned into a pCR2.1 vector (Invitrogen) and the nucleotide sequence was verified by DNA sequencing. The cDNA fragments were then excised and directionally ligated to the BglII and EcoRI sites of the baculovirus transfer vector pAcUW21 (Lopez-Ferber et al., Baculovirus transfer vectors, in “Baculovirus Expression Protocols,” Richardson (Ed.), pp 25-63, Humana Press, Totowa, N.J., 1995). Recombinant baculoviruses harboring the human FAAH gene, Ac-hFAAH, were generated by co-transfection of Spodoptera frugiperda-derived Sf21 cells with the recombinant transfer vector plasmid and Bsu36I-cleaved BacPAK6 viral DNA (Clontech Laboratories; Mountain View, Calif.) as described in O'Reilly et al., Baculovirus Expression Vectors: A Laboratory Manual, Oxford University Press, New York, 1992. Trichoplusia ni-derived High Five cells (1×10^6 cells/ml) were inoculated with a high titer of Ac-hFAAH. At 72 hours post-infection, the infected cells were harvested by centrifugation at 2,000×g for 20 min at 4° C. and suspended in 50 mM Tris-HCl (pH 8.0) containing 150 mM NaCl, 1 mM EDTA, 1 μM pepstatin, 100 μM leupeptin, and 0.1 mg/ml aprotinin. The cell suspension was then homogenized using a Polytron homogenizer and centrifuged at 10,000×g for 20 min at 4° C. […]
# Comparison of the lowest detection limits of protein concentration of FAAH toward colorimetric and fluorescent substrates. […] The lowest detection limits of microsomal fatty acid amide hydrolase (FAAH) by substrates were determined by the fact that the signal at 10 min after kinetic measurements are equal to or over three times the noise or basal line at 0 min. Colorimetric substrate (16) assays were performed in clear 96-well microtititer plates using an absorbance wavelength at 382 nm. The fluorescent substrates containing 5-amino-2-methoxypyridine (e.g., 10, 13) were measured at an excitation wavelength (302 nm), emission wavelength (396 nm), and auto cutoff wavelength (325 nm). Similarly, the fluorescent substrates containing 5-amino-2-methoxy-6-methylpyridine (e.g., 11, 14, and 17) were measured at an excitation wavelength (304 nm), emission wavelength (392 nm), and an auto cutoff wavelength of 325 nm. […]
# [10] = Comparison of aqueous solubility of substrates (absorbance at 800 nm); format: physicochemical; conditions: 0.1 M phosphate buffer (pH 8.0), 1% ethanol, 37° C.
# Description: Comparison of aqueous solubility of substrates. The aqueous solubility of the aminopyridine derivatives (e.g., 13, 14) and the 7-aminocoumarin derivative (e.g., 15) was determined in clear 96-well styrene flat-bottom microtiter plates with a Spectra Max M2 spectrophotometer. Different concentrations of the substrates (13, 14 and 15; final concentration: 0.39, 0.78, 1.56, 3.13, 6.25, 12.5, 25, 50, 100, or 200 μM) in 200 μl 0.1 M sodium phosphate buffer (1% ethanol; pH 8.0) were used and the absorbance was recorded at a wavelength of 800 nm at 37° C. The measurements were performed in three replicates for each concentration.
# [11] = biological target: T2, human FAAH, microsomes from FAAH cells (Homo sapiens, UniProt O00519); assay: Specific activity, microsomes from FAAH cells; format: biochemical
# T2 construct: made in house; host or cells: Trichoplusia ni High Five cells infected with recombinant baculovirus Ac-hFAAH; microsomal fraction
# T2 sequence (O00519 1-579): T1 sequence (O00519 1-579)
# Description: as §2, §1
# Specific activity determination. The assays for specific activities were performed as described above for the sensitivity assay. […]
smiles,measurement,setting,value
"CCCCCC=CCC=CCC=CCC=CCCCC(=O)Nc1ccc2c(C)cc(=O)oc2c1 [AAMCA, arachidonyl 7-amino-4-methylcoumarin amide]",Selectivity ratio,FAAH [1],2.2
same,Km,FAAH [2],0.48 µM
same,Vmax,FAAH [2],0.058 nmol/min/mg
"Nc1cccnc1 [Compound 1, 3-aminopyridine]",quantum yield,"[3]; in 0.1 NH2SO4, Rusakowicz et al.",1.07
same,quantum yield,"[3]; in 1 N NaOH, Rusakowicz et al.",0.03
same,"ØF, fluorescence quantum yield",[3],0.32^d
same,"ØF, fluorescence quantum yield",[3]; listed as 3-aminopyridine,0.32
same,"εmax, molar extinction coefficient",[4],2800 M⁻¹ cm⁻¹
same,"Em, maximal emission wavelength",[5],378 nm
same,"Ex, maximal excitation wavelength",[5],286 nm
same,"εmax, molar extinction coefficient",[6],2890 M⁻¹ cm⁻¹
"CC(=O)Nc1ccc2c(C(F)(F)F)cc(=O)oc2c1 [Compound 12, N-(4-(trifluoromethyl)-2-oxo-2H-chromen-7-yl) acetamide]","Specific activity, Human liver S9","amidases, human liver S9",0.18 ± 0.02 nmol/min/mg protein
same,"Specific activity, Human liver microsomes",[7],0.66 ± 0.06 nmol/min/mg protein
same,melting point,,109.3 to 111.4 °C
"CCCCCCCC(=O)Nc1ccc(OC)nc1C [Compound 14, N-(6-methoxy-2-methylpyridin-3-yl) octanamide]","base line, Average","[8]; 0 min, protein 0.11 (13), 0.67 (14), 100 (15), 0.5 (17) μg/well, 200 μM (13),(14), 25 μM (15), 50 μM (17)",194 RFU
same,"signal, Average","[8]; 10 min, protein 0.11 (13), 0.67 (14), 100 (15), 0.5 (17) μg/well, 200 μM (13),(14), 25 μM (15), 50 μM (17)",728* RFU
same,"Protein, lowest detection limit of microsomal FAAH (signal at 10 min ≥ three times base line)","[8]; pH 8.0, 37° C., 200 μM (13), (14), 50 μM (17)",0.67 μg/200 μ′
same,lowest detection limit of protein,[8]; signal at 10 min equal to three times base line,3.3 μg protein/ml
same,"Specific activity, Human liver S9","amidases, human liver S9",0.42 ± 0.01 nmol/min/mg protein
same,preference of human liver microsomes for substrate (14) over (13),[7]; Table 4,at least 15 times
same,"Specific activity, Human liver microsomes",[7],6.90 ± 0.25 nmol/min/mg protein
same,"Specific activity, Microsomes from High Five cells",[9],591 ± 18.4 pmol/min/mg protein
same,melting point,,67.4 to 68.2 °C
same,aqueous solubility compared with coumarin substrate (15),[10],much higher solubility
same,"enhancement of activity, microsomes from FAAH-expressing cells compared with High Five cells",[11],31 times
same,"Specific activity, Microsomes from FAAH cells","[11]; pH 8.0, 37° C., NM = not measurable at the same protein concentration as other substrates",19.0 ± 0.5 nmol/min/mg protein
"CCCCCCCC/C=C\CCCCCCCC(N)=O [Oleamide, oleamide]",Selectivity ratio,FAAH [1],1.0
same,Km,FAAH [2],104 µM
same,Vmax,FAAH [2],5.7 nmol/min/mg
